Legend:
[1] = tested on: MDA-MB-436 cells; assay: Colony formation assay; assay type: cell-based
Method: Exponentially growing DLD-1, DLD-1 BRCA2^KO, SUM149PT, and MDA-MB-436 were seeded on 24-well plates at densities of 100, 400, 500, or 650 cells/well, respectively. Cells were treated with a serial dilution of FEN1 inhibitor and incubated for 11 days (DLD-1 and SUM149PT) or 14 days (DLD-1 BRCA2^KO and MDA-MB-436). Colonies were washed with PBS, fixed with 70% ethanol, and stained with 1% crystal violet solution (Sigma–Aldrich). Excess crystal violet solution was washed off using tap water and images were acquired using a GelCount Scanner (Oxford Optronix). Dye was solubilized with 10% acetic acid (VWR) and absorbance at 595 nm measured using a CLARIOstar plate reader (BMG LABTECH Ltd.). Raw absorbance data for each cell line were normalized to DMSO treatment. Data were fitted with a nonlinear regression curve (four parameters) to determine EC50 (half maximal inhibitory concentration) values.

[2] = target: T1, FEN1 (Homo sapiens, UniProt P39748); assay: Fluorescence-based 5′-flap cleavage assay of FEN1 nuclease activity; assay type: biochemical
T1 construct: Full-length FEN1 (1-380) was expressed in Escherichia coli; 6His; made in house; host or cells: Escherichia coli
Method: MSC778 was dissolved in dimethyl sulphoxide (DMSO) to give a 10 mM stock. FEN1/EXO1: compound was dispensed into black 384-shallow well microplates (Greiner #784076). The compound was dispensed as an 11-point dose response with a 3-fold serial dilution from a top concentration of 10 mM (to give a final in-assay concentration of 100 µM). GEN1/XPG: MSC778 was dispensed into black 1536-well plates (Greiner #782076). The compound was dispensed as a 20-point dose response with a 3-fold serial dilution from a top concentration of 10 mM (to give a final in-assay concentration of 100 µM). The volume of DMSO was adjusted to ensure that each well contained 1% (v/v) DMSO in the final assay. […]
5 µl (FEN1/EXO1) or 3 µl per well (GEN1/XPG) of stop buffer (20 mM Tris pH 7.5, 300 mM EDTA) was added to all wells, then the plates were read on the CLARIOstar Plus (BMG LABTECH Ltd.) using the Fluorescein (FITC) wavelengths (Ex 483 ± 14, Em 530 ± 30, Dichroic auto/502.5) and auto focal height/gain settings.
All data analysis was carried out using Genedata Screener software. IC50 values were calculated using the SmartFit function.
A fluorescence-based 5′-flap cleavage assay, in which quenching of the fluorescence of a fluorescein amidite (FAM) moiety is alleviated by nucleolytic cleavage, was used to measure the nuclease activity of FEN1 (Fig. 1B and Supplementary Fig. S1A). […]

[3] = tested on: SUM149PT 53BP1KO and SHLD2KO cells; assay: Cell viability assay (CTG), 7 days, PARP inhibitor resistant models; assay type: cell-based; settings: less sensitive than parental
Method: Cells were seeded in 150 μl of media in 96-well plates or in 70 μl of media in 384-well plates pre-dosed with compounds (8–10 points dose response) with a D300e digital dispenser (Tecan) and incubated for 24 h at 37°C and 5% CO2. Cell proliferation at the end of the assay (7 days) was measured using CTG (Promega, G9243). CTG luminescence was normalized to vehicle treated control for each cell line, and data were fitted with a nonlinear regression curve (four parameters) to generate compound sensitivity curves and determine IC50 or EC50 (half maximal inhibitory/effective concentration) values as indicated.

T1 sequence (P39748 whole entry): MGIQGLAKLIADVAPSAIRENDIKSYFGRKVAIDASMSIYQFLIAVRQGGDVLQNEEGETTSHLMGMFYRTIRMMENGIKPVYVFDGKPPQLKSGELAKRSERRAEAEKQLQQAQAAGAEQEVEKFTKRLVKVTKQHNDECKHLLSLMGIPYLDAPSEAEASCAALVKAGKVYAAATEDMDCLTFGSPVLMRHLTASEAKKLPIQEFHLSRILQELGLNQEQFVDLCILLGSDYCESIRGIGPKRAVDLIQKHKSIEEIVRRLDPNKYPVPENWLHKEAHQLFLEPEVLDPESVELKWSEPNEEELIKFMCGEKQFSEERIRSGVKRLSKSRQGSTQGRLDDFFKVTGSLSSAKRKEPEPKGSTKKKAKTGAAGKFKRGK

## C[C@H](Oc1nn2c(c(O)c1=O)C(=O)N1CCOC[C@@H]1C2)c1ccc2ccc(Cl)cc2c1 [MSC778]
[1]; Homo sapiens, 336 h, MDA-MB-436, 14 days, read-out: Colony survival EC50
  EC50: 65 nM
[1]; MDA-MB-436
  Enhancement in sensitivity in colony survival versus 7-day viability assay: 10 fold
[2]; more potent than MSC781
  Potency on FEN1 nuclease activity relative to MSC781: 16 fold
[2]; n = 3, SD = 0.14, cognate 5′ flap substrate
  IC50: 3.2 nM
[3]
  Change in sensitivity of SUM149PT 53BP1KO and SHLD2KO cells versus parental cells: 2 fold
